Patent publication US20240238236A1, “COMPOSITION FOR REGULATING CARBOHYDRATE METABOLISM, AND METHOD FOR ASSESSING CARBOHYDRATE METABOLISM CONDITIONS OF SUBJECT” (KAGAMI INC., priority 2021, published 2024)

Legend:
Format in all cases: in vivo
[1] = test system: carbohydrate metabolism-modified mice (type 1 diabetes model); assay: insulin tolerance testing (ITT); conditions: before and at 2 weeks after STZ, vs water control; for blood glucose level and insulin resistance in insulin tolerance testing (ITT): 20 mM in drinking water
Description: (§1) After removing the left kidney of C57BL/6(B6) mice (−2 weeks: −2 w), a group administered Risperidone aqueous solution as a DAO inhibitor in drinking water (n=3 to 7) and a group administered water as drinking water (n=9 to 11) as a control were administered streptozotocin (STZ) at 50 mg/kg (0) weeks) to create carbohydrate metabolism-modified model mice, and insulin tolerance testing (−1 weeks, 2 weeks), intra-peritoneal glucose tolerance testing (−1 weeks), casual blood glucose measurement (−1 weeks, 2 weeks, 6 weeks) and fasting blood glucose measurement (−1 weeks, 2 weeks) were conducted as appropriate.
(§2) After removing the left kidney of C57BL/6(B6) mice (−2 weeks: −2 w), a group administered an aqueous solution of 20 mM D-alanine (n=5 to 8), 80 mM D-alanine (n=3 to 4), 20 mM D-serine (n=6 to 7) or 80 mM D-serine (n=4) as drinking water, and a group administered water as drinking water as a control (n=8) were administered streptozotocin (STZ) at 50 mg/kg (0 weeks) to create carbohydrate metabolism-modified model mice, and insulin tolerance testing (−1 weeks, 2 weeks), casual blood glucose measurement (0 weeks to 18 weeks), fasting blood glucose measurement (0 weeks to 16 weeks) and systolic/diastolic blood pressure measurement (−1 weeks to 18 weeks) were conducted as appropriate.

[2] = test system: carbohydrate metabolism-modified mice (type 1 diabetes model); assay: casual blood glucose measurement; conditions: for increase in casual blood glucose level: 20 mM in drinking water on D-amino acid-free diet, after STZ (2 weeks); for casual blood glucose level: vs water control
Description: (§3) After removing the left kidney of C57BL/6(B6) mice (−2 weeks: −2 w), a D-amino acid-eliminated diet (D-amino acid-free diet, D-fd) was provided, and groups administered aqueous solution of 20 mM D-alanine (n=5), 20 mM D-serine (n=5), 20 mM D-proline (n=5), 20 mM D-leucine (n=5) or water (n=6 to 14) in drinking water, and a group given normal diet and water as a control (n=5), were administered streptozotocin (STZ) at 50 mg/kg (0 weeks) to create carbohydrate metabolism-modified model mice, and blood insulin measurement (−1 weeks, 3 weeks), casual blood glucose measurement (−1 weeks, 2 weeks), fasting blood glucose measurement (−1 weeks, 3 weeks) and measurement of insulin and glucagon in pancreatic islets of Langerhans by antibody staining, were conducted as appropriate.

[3] = test system: carbohydrate metabolism-modified mice (type 1 diabetes model); assay: fasting blood glucose measurement; conditions: vs water control
Description: as §3

[4] = test system: carbohydrate metabolism-modified mice (type 1 diabetes model); assay: death during D-amino acid administration in drinking water; conditions: 80 mM in drinking water (n=4); within 18 weeks
Description: as §2

[5] = test system: carbohydrate metabolism-modified mice (type 1 diabetes model); assay: systolic/diastolic blood pressure measurement; conditions: 80 mM in drinking water; 10 weeks after STZ; vs B6 group
Description: as §2

[6] = test system: db/db mice (type 2 diabetes model); assay: casual blood glucose in db/db mice; conditions: 20 mM in drinking water, 5 to 18 weeks, vs control group
[7] = test system: carbohydrate metabolism-modified mice (type 1 diabetes model); assay: intra-peritoneal glucose tolerance testing (IPGTT); conditions: Risperidone in drinking water; B6 mice, -1 weeks; vs water control
Description: as §1

[8] = 20 mM or 80 mM in drinking water, dose-dependent, after STZ (0 to 18 weeks)
[9] = 20 mM or 80 mM in drinking water, dose-dependent, after STZ (0 to 16 weeks)

| SMILES | blood glucose level and insulin resistance in insulin tolerance testing (ITT) [1] | increase in casual blood glucose level [2] | casual blood glucose level [2, 8] | fasting blood glucose level [3, 9] | death of animals (toxicity) [4] | diastolic pressure [5] | systolic pressure [5] | casual blood glucose level [6] | blood glucose level in insulin tolerance testing (ITT) ([1]; Risperidone aqueous solution in drinking water, left kidney removed, STZ 50 mg/kg B6 mice) | blood glucose level in intra-peritoneal glucose tolerance testing (IPGTT) [7] | casual blood glucose level ([2]; Risperidone in drinking water, after STZ (2, 6 weeks)) | fasting blood glucose level ([3]; Risperidone in drinking water, after STZ (2 weeks)) |
| --- | --- | --- | --- | --- | --- | --- | --- | --- | --- | --- | --- | --- |
| N[C@H](CO)C(=O)O [D-serine] | lower blood glucose levels and lower insulin resistance compared to the control group | suppressed | remained at a low levels | remained at a low levels | one individual died within 18 weeks |  |  |  |  |  |  |  |
| CC(C)C[C@@H](N)C(=O)O [D-leucine] |  | suppressed |  |  |  |  |  |  |  |  |  |  |
| C[C@@H](N)C(=O)O [D-alanine] | lower blood glucose levels and lower insulin resistance compared to the control group | suppressed | remained at a low levels | remained at a low levels |  | lowered | lowered | lower levels |  |  |  |  |
| Cc1nc2n(c(=O)c1CCN1CCC(c3noc4cc(F)ccc34)CC1)CCCC2 [Risperidone, reference compound] |  |  |  |  |  |  |  |  | lower blood glucose levels compared to the control group | lower values for blood glucose level than the control group | remained at low levels in the Risperidone group compared to the control group | remained at low levels in the Risperidone group compared to the control |
